Assays:
sXBP1 (UPR) = assay: RT-PCR assay of spliced XBP1 mRNA (sXBP1) in macrophages; format: cell-based, mouse; conditions: FIG. 1D and 1E
From the text: FIG. 1: C12 induces the UPR in mammalian cells. (A and B). Comparison of the macrophage responsiveness to P. aeruginosa (P.a.), S. typhimurium (S.t), and S. aureus (S.a.). RT-PCR assay of XBP1 (A) and Western blot analysis (B) of p38, its phosphorylated form (p-p38) as well as phosphorylated forms of PERK (p-PERK) and eIF2α (p-eIF2α) in cell extracts after treatment with bacteria are shown. (C) Macrophages were stimulated with P. aeruginosa wild type (wt) or lasI mutant (ΔlasI), and cell extracts (total RNA or total protein) were prepared and analyzed as in (A and B). […] (F) Total RNA was prepared from lung of mice after inoculation of vehicle (-) or (C12) and analyzed in (D). […]
Among key biochemical signatures of the multicomponent ER stress pathway, known as the unfolded protein response (UPR), are the phosphorylation of the α-subunit of eukaryotic translation initiation factor-2 (eIF2α) and activation of the transcription factor XBP1/Hac1 (X-box binding protein-1 in metazoans and homologous to ATF/CREB in yeast, respectively) ^11. […] To initiate our studies, we exposed bone marrow-derived macrophages (BMDM) to these bacteria, and macrophage responsiveness was analyzed for biochemical markers of the UPR and the phosphorylation of the mitogen-activated protein kinase p38, as a common marker of TLR pathways. […]

[1] = system: normal human bronchial epithelial cells (NHBE); assay: PARP cleavage in normal human bronchial epithelial cells; format: cell-based; conditions: FIG. 3D
Method: FIG. 3: Sensitivity of cancerous and non-cancerous cells to apoptosis induced by TNF, C12 or a combination of C12 and TNF. Cells were incubated with TNF, (C12) or a combination of TNF and (C12) as indicated, and the cleavage of PARP (an apoptotic marker) was determined by Western blot. (A and B) Breast cancer MCF-7 cells transfected with control vector (Vector) and vector expressing Bcl-2 or CLARP. (C) HeLa cell line. (D) Normal human bronchial epithelial cells (NHBE).
Similar experiments were conducted by using normal human bronchial epithelial cells and HeLa cell line as an example of transformed cells. We observed that both HeLa and normal cells were resistant to pro-apoptotic effects of TNF (FIG. 3C and 3D). […] In addition, two stimuli—C12 and TNF—work synergistically against cancerous cells, although normal cells stay intact.
Cancer and normal cell culture. Lung cancer cell line A549 and colon cancer cell line HT29 were purchased from ATCC. Breast cancer cell line MDA-MB-468 was received from J. C. Reed (The Burnham Institute, La Jolla, Calif.). […]
Antibodies and Western blot analysis. […] Cellular extracts were prepared and analyzed by Western blot assay as previously described.^E3

For `CCCCCCCCCC(=O)CC(=O)N[C@H]1CCOC1=O` [Compound 1, N-(3-oxo-dodecanoyl) homoserine lactone], the “induction of sXBP1 / activation of the UPR” value (sXBP1 (UPR)) was “time- and dose-dependent induction of sXBP1” and the “apoptosis (PARP cleavage), compound alone and in combination with TNF” value [1] was “showed resistance”.

From US9765061B2, “Trail enhancers for the selective killing of cancer cells” (The Scripps Research Institute, priority 2013, dated 2017)
